# Where “and” joins values, the source holds several entries; their conditions need not be identical. Equal values may be shown once.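 Exposure lasted 48 hours, with cells grown in 96-well plates and compounds tested at five concentrations. GI50: concentration for 50% inhibition of growth. TGI: concentration producing complete growth inhibition.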
# Key:
# Experiment in all cases: growth of human tumour cells (NCI), 48 h
# [1] = system: UACC-257 melanoma
# [2] = system: MCF7 breast
# [3] = system: OVCAR-3 ovarian
# [4] = system: UACC-62 melanoma
# [5] = system: PC-3 prostate
# [6] = system: SN12C renal
# [7] = system: CAKI-1 renal
# [8] = system: K-562 leukemia
# [9] = system: ACHN renal
# [10] = system: MALME-3M melanoma
Structure (SMILES),GI50 [1],TGI [1],GI50 [2],TGI [2],GI50 [3],TGI [3],GI50 [4],TGI [4],GI50 [5],TGI [5],GI50 [6],TGI [6],GI50 [7],TGI [7],GI50 [8],TGI [8],GI50 [9],TGI [9],GI50 [10],TGI [10]
O=C1NC(=O)[C@@H](c2cn3c4c(cccc24)CCC3)[C@@H]1c1c[nH]c2ccccc12,0.712 µM and 2.51 µM,> 10 µM and 29.8 µM,0.246 µM and 0.331 µM,> 10 µM and 12.8 µM,0.273 µM and 0.28 µM,> 2.22 µM and 0.789 µM,0.443 µM and 0.51 µM,> 10 µM and 18.3 µM,0.411 µM and 0.521 µM,> 10 µM and 37.4 µM,0.556 µM and 0.888 µM,> 10 µM and 15.9 µM,0.332 µM and 0.518 µM,> 10 µM and 31.4 µM,0.182 µM and 0.312 µM,> 10 µM and 18.6 µM,0.661 µM and 0.829 µM,> 10 µM and 32.9 µM,0.987 µM and 0.434 µM,> 10 µM and 26.6 µM
CCOC(=O)Oc1c(OC)cc(C(=O)c2ccc(OC)c(OC(=O)CCl)c2OC)cc1OC,66.6 µM,> 100 µM,0.88 µM,> 100 µM,0.414 µM,23 µM,2.67 µM,> 100 µM,2.83 µM,> 100 µM,3.39 µM,> 100 µM,3.76 µM,> 100 µM,0.457 µM,> 100 µM,3.66 µM,> 100 µM,0.688 µM,79.9 µM
NCCCn1c2c(c3ccccc3c1=O)C(=O)c1cc3c(cc1-2)OCO3,1.95 µM,12.6 µM,0.126 µM,> 52.7 µM,0.766 µM,3.85 µM,0.0631 µM,0.62 µM,1.22 µM,7.41 µM,0.276 µM,1.05 µM,0.247 µM,2.27 µM,0.2 µM,4.23 µM,0.061 µM,0.295 µM,1.48 µM,6.64 µM
O=C(O)CSCC(=O)c1ccccc1,,> 100 µM,,> 100 µM,,> 100 µM,,> 100 µM,,> 100 µM,,> 100 µM,,> 100 µM,,> 100 µM,,> 100 µM,,> 100 µM
C=C1C(=O)OC2C1C(OC(=O)/C(C)=C/C)CC(O)(CCl)C1C(OC(C)=O)C=C(C)C21O (stereo not given),,34.1 µM,,19.8 µM,,23.4 µM,,29.3 µM,,30.8 µM,,40.4 µM,,17.7 µM,,> 37.4 µM,,22.7 µM,,14.9 µM
O=c1oc2ccccc2cc1-c1ccc([N+](=O)[O-])cc1,,> 100 µM,,> 100 µM,,> 100 µM,,> 100 µM,,> 100 µM,,> 100 µM,,> 100 µM,,> 100 µM,,> 100 µM,,> 100 µM
CC(C)(C)[Si](C)(C)OC1[C@@H](O[Si](C)(C)C(C)(C)C)[C@@H](CNC(=O)NC(=O)NC(=O)CI)O[C@H]1n1cnc2c(NC(=O)Nc3ccccc3)ncnc21 (stereo not given in full),7.42 µM,16.7 µM,6.1 µM,17.4 µM,0.215 µM,0.62 µM,8.63 µM,22.6 µM,0.385 µM,3.42 µM,6.49 µM,15.6 µM,0.0966 µM,0.406 µM,3.55 µM,8.5 µM,1.41 µM,9.75 µM,0.143 µM,0.565 µM
CCOC(=O)c1[nH]c2cccc3c2c1CC(Br)C3=O (stereo not given),,28.6 µM,,84.3 µM,,26.2 µM,,,,33 µM,,30.9 µM,,23.6 µM,,,,20.2 µM,,28.2 µM
CS(=O)(=O)c1ccc(Oc2nccc(-c3c(-c4ccc(F)cc4)ncn3C3CCNCC3)n2)cc1,,,> 25 µM,> 25 µM,> 25 µM,> 25 µM,> 25 µM,> 25 µM,> 25 µM,> 25 µM,> 25 µM,> 25 µM,> 25 µM,> 25 µM,> 9.38 µM,> 14.9 µM,> 25 µM,> 25 µM,> 25 µM,> 25 µM
Cc1cc(Cl)ccc1NC(=O)/C(Cc1nc2ccc(C(=O)c3ccccc3)cc2[nH]c1=O)=N/NC(=O)c1ccncc1,,> 100 µM,,> 100 µM,,> 100 µM,,> 100 µM,,> 100 µM,,> 100 µM,,> 100 µM,,> 100 µM,,> 100 µM,,> 100 µM
O=C(O)C(Cc1ccccc1-c1ccccc1)C(=O)O,,> 100 µM,,> 100 µM,,> 100 µM,,> 100 µM,,> 100 µM,,> 100 µM,,> 100 µM,,> 100 µM,,> 100 µM,,> 100 µM
COc1cccc(-c2nc(-c3ccc(NS(=O)(=O)c4ccccc4)cc3)[nH]c2-c2ccnc(Br)c2)c1,3.11 µM,30.3 µM,2.64 µM,> 100 µM,3.03 µM,17.7 µM,2.58 µM,8.56 µM,2.39 µM,16.9 µM,3.03 µM,> 100 µM,1.75 µM,5.63 µM,2.6 µM,> 100 µM,2.6 µM,> 100 µM,1.76 µM,5.22 µM
COc1ccc2c(CN3CCC(CO)CC3)cc3cc4c(cc3c2c1)OCO4,0.156 µM,0.393 µM,0.211 µM,2.55 µM,0.316 µM,3.39 µM,0.235 µM,0.539 µM,0.236 µM,1.02 µM,0.247 µM,4.37 µM,0.289 µM,3.42 µM,0.15 µM,3.07 µM,0.0825 µM,0.45 µM,0.199 µM,0.799 µM
OCc1ccc(N(Cc2ccc(F)cc2)C2CCC2)cc1Cl,0.121 µM,0.46 µM,0.178 µM,10.9 µM,0.403 µM,2.05 µM,0.124 µM,0.846 µM,11.9 µM,24.8 µM,11.8 µM,24.4 µM,0.619 µM,4.02 µM,1.01 µM,15 µM,13.2 µM,26.4 µM,16.2 µM,31.3 µM
COc1cc2c3c(n(CCCO)c(=O)c2cc1OC)-c1cc2c(cc1C3=O)OCO2,64.7 µM,> 100 µM,2.94 µM,> 100 µM,21.6 µM,> 81.9 µM,2.45 µM,25.3 µM,> 24.7 µM,> 81.7 µM,3.53 µM,> 54.3 µM,0.465 µM,> 19.6 µM,6.96 µM,> 47 µM,1.65 µM,9.83 µM,21.6 µM,> 100 µM
CCN(CC)c1ccc2[nH]c3c(C(N)=O)cc(=O)c(=O)c=3oc2c1,0.683 µM,3.25 µM,1.68 µM,> 100 µM,0.68 µM,4.3 µM,1.59 µM,4.75 µM,2.52 µM,> 100 µM,2.09 µM,> 100 µM,1.09 µM,3.44 µM,1.93 µM,> 100 µM,1.84 µM,> 100 µM,1.16 µM,2.96 µM
COc1cc(-c2cc(C(=O)Nc3nc4ccccc4s3)nc3cc(-c4ccccc4)nn23)cc(OC)c1OC,,,22.4 µM,> 100 µM,13.3 µM,52.1 µM,14.4 µM,80.4 µM,> 100 µM,> 100 µM,85.1 µM,> 100 µM,53.7 µM,> 100 µM,25.4 µM,> 100 µM,45.7 µM,> 100 µM,12.4 µM,56.2 µM
O=P(Oc1ccccc1)(Oc1ccccc1)C(O)c1ccccc1 (stereo not given),36.5 µM,> 100 µM,> 100 µM,> 100 µM,43.9 µM,> 100 µM,44.8 µM,> 100 µM,35.8 µM,> 100 µM,> 100 µM,> 100 µM,66.5 µM,> 100 µM,46.8 µM,> 100 µM,> 100 µM,> 100 µM,4.65 µM,> 100 µM
COc1ccc(C(=O)c2cc(OC)c(OC)c(OC)c2)cc1/C=C/C(=O)c1ccc(O)cc1,7.77 µM,26.6 µM,3.16 µM,15.9 µM,3 µM,8.47 µM,1.69 µM,3.77 µM,1.69 µM,4.71 µM,2.66 µM,12.6 µM,3.07 µM,17.3 µM,0.357 µM,> 100 µM,5.22 µM,21.5 µM,9.69 µM,25.1 µM
Cc1cc(S(=O)(=O)Nc2nnc(-c3ccco3)c(-c3ccco3)n2)c(SCc2ccccc2)cc1Cl,25.9 µM,67.6 µM,26.7 µM,61.9 µM,26.2 µM,50.9 µM,19.4 µM,37.2 µM,28 µM,57 µM,,,28.5 µM,55.8 µM,28.2 µM,> 100 µM,20.2 µM,41.9 µM,19.8 µM,43.9 µM
O=C(CCl)Nc1ccccc1SCc1cc(Cl)cc2c1OCOC2,,,3.41 µM,15.4 µM,2.08 µM,4.24 µM,5.44 µM,19.9 µM,11.4 µM,25.9 µM,6.69 µM,21 µM,5.5 µM,32.6 µM,3.35 µM,25.1 µM,10.6 µM,23.8 µM,2.3 µM,5.96 µM
